Reference: PubChem BioAssay (NCI)
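Assay format: 96-well plates, 48-hour exposure. The concentration for 50% growth inhibition is given as GI50. TGI denotes the concentration required for complete inhibition of growth.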 Where a SMILES comes first, the peptide text is derived from it. [ ]: non-standard residue; d: D form. The star is where a group is joined. ξ: configuration not given here. X6 = FC(F)(F)c1cc(NC(=S)*)cc(C(F)(F)F)c1; ξF = NC(Cc1ccccc1)C(=O)O

How the values were obtained:
Test in all cases: NCI tumour cell line growth inhibition, 48 h
[1] = tested on: BT-549 breast
[2] = tested on: HS 578T breast
[3] = tested on: MCF7 breast
[4] = tested on: MDA-MB-231 breast
[5] = tested on: MDA-MB-435
[6] = tested on: PC-3 prostate
[7] = tested on: DU-145 prostate

Row | Structure (SMILES) | GI50 [1] [µM] | TGI [1] [µM] | GI50 [2] [µM] | TGI [2] [µM] | GI50 [3] [µM] | TGI [3] [µM] | GI50 [4] [µM] | TGI [4] [µM] | GI50 [5] [µM] | TGI [5] [µM] | GI50 [6] [µM] | TGI [6] [µM] | GI50 [7] [µM] | TGI [7] [µM]
1 | COc1cc(Cc2cnc(/N=C3\C(=O)N(CN4CCN(c5c(F)cc6c(=O)c(C(=O)O)cn(C7CC7)c6c5OC)CC4C)c4ccc(F)cc43)nc2N)cc(OC)c1OC (stereo not drawn) | 19.7 | 49.2 | 23.6 | 82.5 | 8.35 | 52.8 | 11.8 | 30.3 | 14.2 | 32.9 | 13 | 25.7 | – | –
2 | Clc1ccc2c(NCCCCNc3nc(N4CCCCC4)nc4ccccc34)ccnc2c1 | 1.78 | 4.1 | 1.82 | 4.6 | 2.52 | 10.8 | 1.75 | 4.28 | 1.67 | 3.2 | 3.33 | 14.6 | 3.8 | 15.2
3 | O=C1C=C(Cl)C(=O)C(c2ccc(Cl)cc2)=C1 | – | 46 | – | 74.9 | – | 41.6 | – | 36 | – | 46.6 | – | 29.3 | – | 46.5
4 | NC(=O)c1cccc2cn(-c3ccc([C@@H]4CCCNC4)cc3)nc12 | 18.8 | 40.9 | 21.5 | 76.7 | 6.59 | 23.9 | 11.7 | 31.2 | 12.7 | 26.5 | 16.1 | > 100 | 8.97 | 21.9
5 | CC12CCC(O)CC1CCC1C2CCC2(C)C(C3=CC(=O)OC3)CCC12O (stereo not drawn) | – | 4.53 | – | > 100 | – | – | – | > 100 | – | 9.38 | – | 13.1 | – | 2.85
6 | Nc1ccccc1SC(C[N+](=O)[O-])c1ccc2c(c1)OCO2 (stereo not drawn) | – | 15.2 | – | 36.8 | – | 12.4 | – | 20 | – | 9.35 | – | 20.6 | – | 8.77
7 | COc1cc(-c2nn(-c3ccc(NC(=O)c4ccc(Cl)c(C(F)(F)F)c4)cc3)cc2-c2ccncc2)ccc1Cl | 3.08 | 32.5 | 1.23 | 4.03 | 3.05 | > 100 | 1.6 | 6.09 | 2.41 | > 100 | 3.04 | > 100 | 4.59 | > 100
8 | COC(=O)[C@@H](NC(=O)CNC(=O)[C@H]1CCCN1C(=O)C(Cc1ccccc1)NC(=S)Nc1cc(C(F)(F)F)cc(C(F)(F)F)c1)C(C)C (stereo partly drawn) (X6-[ξF][dP]GV-OMe) | 1.85 | 3.78 | 2.47 | 8.49 | 2.86 | 11.3 | 1.48 | 3.14 | 2.79 | 8.12 | 2.48 | – | 4.85 | 20.8
9 | Cn1c2ccccc2c2c(Nc3ccccc3)c3ccccc3nc21 | 21.3 | 47.8 | 18.2 | 60 | 5.29 | 25.4 | 2.75 | 22.9 | 2.7 | 6.85 | 11.7 | 48.1 | 9.35 | 50.4
10 | C=C(CN1CCN(c2ccc(Cl)cc2F)CC1)c1ccc(C(=O)Nc2ccccc2N)cc1 | 2.99 | > 65.3 | 3.38 | > 70.6 | 3.08 | > 100 | 0.536 | 3.64 | – | – | 1.55 | > 100 | 3.14 | > 100
11 | COC1=CC(=O)c2nc(-c3ccncc3)[nH]c2C1=O | > 100 | > 100 | 60 | > 100 | > 100 | > 100 | > 100 | > 100 | > 100 | > 100 | > 100 | > 100 | > 100 | > 100
12 | CC(C)CCC[C@@H](C)[C@H]1CC[C@H]2[C@@H]3CC=C4C[C@@H](C(C(=O)O)C(=O)O)CC[C@]4(C)[C@H]3CC[C@]12C | 0.197 | 2.21 | 0.242 | 2.58 | 0.386 | 5.37 | 0.214 | 0.838 | 0.0721 | 0.188 | 0.177 | 2.19 | 0.115 | 0.274
13 | COc1ccc2c(c1)/C(=C/c1c(C)nc3sc(C)nn13)C(=O)N2 | 5.69 | > 100 | 5.16 | > 68.3 | 1.61 | > 100 | 7.59 | > 100 | – | – | 2.48 | > 100 | 6.11 | > 100
14 | CCN(CCO)CC1CCCC2CCCCC21 (stereo not drawn) | – | > 100 | – | > 100 | – | > 100 | – | > 100 | – | > 100 | – | > 100 | – | > 100
15 | Cn1cc(C2=C(c3cn(C)c4ncccc34)C(=O)NC2=O)c2ccccc21 | 6.97 | 22.2 | 4.17 | > 19.1 | 7.66 | > 25 | 12.2 | > 25 | 2.2 | > 25 | 8.27 | > 25 | 13.1 | > 25
16 | O=C(/C=C/C12c3ccccc3C(c3ccccc31)C1C(=O)NC(=O)C12)c1ccncc1 (stereo not drawn) | 2.06 | 5.93 | 3.04 | 19.8 | 2.25 | 12.6 | 3.13 | 12.7 | 2.9 | 8.36 | 1.97 | 5.4 | 2.8 | 11.8
17 | COc1ccc2c(C3=C(c4cn(C)c5ccccc45)C(=O)NC3=O)cn(C)c2c1 | – | > 25 | 0.113 | > 25 | 0.0853 | > 25 | 0.542 | > 25 | – | – | 0.0936 | > 25 | 0.137 | > 25
18 | COC1=CC(c2ccc[nH]2)=N/C1=C\c1[nH]c(C)c(C(=O)OC(C)C)c1C | 0.061 | 2.68 | 0.0445 | 0.34 | 0.0487 | 1.9 | 0.0252 | 0.274 | 0.0349 | 0.386 | 0.0633 | 4.7 | 0.0609 | 6.47
